Patent publication US20260266848A1, “COMPOSITIONS AND METHODS FOR DIAGNOSING AND TREATING DYSTONIA” (Duke University, priority 2023, published 2026)
“And” between values parts separate entries of the source, which are not always exact repeats. Equal values may be shown once.

System: DYT-TOR1A MEF EVs
Experiment: Quantitative LC-MS/MS proteomics of EVs from drug-treated DYT-TOR1A MEF cultures (ritonavir, salubrinal)
Assay type: cell-based, mouse
Conditions: 24 h

CC(C)c1nc(CN(C)C(=O)N[C@H](C(=O)N[C@@H](Cc2ccccc2)C[C@H](O)[C@H](Cc2ccccc2)NC(=O)OCc2cncs2)C(C)C)cs1 [ritonavir]
DYT-TOR1A genotype-disrupted EV proteins (n=363) with significant changes in abundance following ritonavir treatment (20 μM ritonavir, p≤0.05): > 60% and 63% | DYT-TOR1A genotype-dependent protein disruptions changed by ritonavir in the corrective direction (20 μM): 95% | putative DYT biomarkers with ritonavir effects on protein abundance in the corrective direction (20 μM, independent of p-value, of 363 proteins): 344/363 | DYT EV proteome significantly modified by ritonavir (20 μM, uncorrected p<0.05, 1974 proteins): 29% | Acaa1a (ACAA1) EV abundance Log2_FC (DYT1+RTV/DYT1, 20 μM): 0.8675 | Ano6 (ANO6) EV abundance Log2_FC (DYT1+RTV/DYT1, 20 μM): 0.08584 | Ap1b1 (AP1B1) EV abundance Log2_FC (DYT1+RTV/DYT1, 20 μM): 1.328 | Arl8b (ARL8B) EV abundance Log2_FC (DYT1+RTV/DYT1, 20 μM): 0.4007 | Bzw2 (BZW2) EV abundance Log2_FC (DYT1+RTV/DYT1, 20 μM): 0.8082 | Cryab (CRYAB) EV abundance Log2_FC (DYT1+RTV/DYT1, 20 μM): 0.42 | DIst (DLST) EV abundance Log2_FC (DYT1+RTV/DYT1, 20 μM): −0.4459 | Ehd4 (EHD4) EV abundance Log2_FC (DYT1+RTV/DYT1, 20 μM): 0.07182 | Flna (FLNA) EV abundance Log2_FC (DYT1+RTV/DYT1, 20 μM): 0.3721 | Fscn1 (FSCN1) EV abundance Log2_FC (DYT1+RTV/DYT1, 20 μM): 0.402 | Gart (GART) EV abundance Log2_FC (DYT1+RTV/DYT1, 20 μM): 0.677 | Hist1h1b (H1-5) EV abundance Log2_FC (DYT1+RTV/DYT1, 20 μM): 0.9834 | Hnrnpc (HNRNPC) EV abundance Log2_FC (DYT1+RTV/DYT1, 20 μM): −0.1273 | Ipo9 (IPO9) EV abundance Log2_FC (DYT1+RTV/DYT1, 20 μM): 1.122 | Jam3 (JAM3) EV abundance Log2_FC (DYT1+RTV/DYT1, 20 μM): −1.301 | Lipg (LIPG) EV abundance Log2_FC (DYT1+RTV/DYT1, 20 μM): 1.299 | Lrrc59 (LRRC59) EV abundance Log2_FC (DYT1+RTV/DYT1, 20 μM): 0.1624 | Mapk3 (MAPK3) EV abundance Log2_FC (DYT1+RTV/DYT1, 20 μM): 1.986 | Mars (MARS1) EV abundance Log2_FC (DYT1+RTV/DYT1, 20 μM): 0.5148 | Mrc2 (MRC2) EV abundance Log2_FC (DYT1+RTV/DYT1, 20 μM): −0.09834 | Myh9 (MYH9) EV abundance Log2_FC (DYT1+RTV/DYT1, 20 μM): −0.00905 | Ndnf (NDNF) EV abundance Log2_FC (DYT1+RTV/DYT1, 20 μM): 0.4697 | Pcmt1 (PCMT1) EV abundance Log2_FC (DYT1+RTV/DYT1, 20 μM): 2.547 | Pi4ka (PI4KA) EV abundance Log2_FC (DYT1+RTV/DYT1, 20 μM): −0.3588 | Pitpnb (PITPNB) EV abundance Log2_FC (DYT1+RTV/DYT1, 20 μM): 0.7296 | Prpsap2 (PRPSAP2) EV abundance Log2_FC (DYT1+RTV/DYT1, 20 μM): −0.08407 | Psmc5 (PSMC5) EV abundance Log2_FC (DYT1+RTV/DYT1, 20 μM): 0.4559 | Psmd12 (PSMD12) EV abundance Log2_FC (DYT1+RTV/DYT1, 20 μM): 1.09 | Psme4 (PSME4) EV abundance Log2_FC (DYT1+RTV/DYT1, 20 μM): 1.371 | Ptma (PTMA) EV abundance Log2_FC (DYT1+RTV/DYT1, 20 μM): −0.8532 | Rap2b (RAP2B) EV abundance Log2_FC (DYT1+RTV/DYT1, 20 μM): 0.3342 | Rbm3 (RBM3) EV abundance Log2_FC (DYT1+RTV/DYT1, 20 μM): −0.1048 | Rhoa (RHOA) EV abundance Log2_FC (DYT1+RTV/DYT1, 20 μM): 0.1985 | Rpl10 (RPL10) EV abundance Log2_FC (DYT1+RTV/DYT1, 20 μM): 0.5214 | Rpl13a (RPL13A) EV abundance Log2_FC (DYT1+RTV/DYT1, 20 μM): 0.6732 | Rps13 (RPS13) EV abundance Log2_FC (DYT1+RTV/DYT1, 20 μM): 0.02007 | Sec31a (SEC31A) EV abundance Log2_FC (DYT1+RTV/DYT1, 20 μM): 0.8357 | Slc2a1 (SLC2A1) EV abundance Log2_FC (DYT1+RTV/DYT1, 20 μM): −0.03153 | Stom (STOM) EV abundance Log2_FC (DYT1+RTV/DYT1, 20 μM): 0.1986 | Tardbp (TARDBP) EV abundance Log2_FC (DYT1+RTV/DYT1, 20 μM): 0.2272 | Tgfb2 (TGFB2) EV abundance Log2_FC (DYT1+RTV/DYT1, 20 μM): −0.7218 | Tln1 (TLN1) EV abundance Log2_FC (DYT1+RTV/DYT1, 20 μM): 0.1451 | Tln2 (TLN2) EV abundance Log2_FC (DYT1+RTV/DYT1, 20 μM): 0.6441 | Tubb1 (TUBB1) EV abundance Log2_FC (DYT1+RTV/DYT1, 20 μM): −0.05972 | Usp7 (USP7) EV abundance Log2_FC (DYT1+RTV/DYT1, 20 μM): 1.189 | Wdr26 (WDR26) EV abundance Log2_FC (DYT1+RTV/DYT1, 20 μM): 1.2 | Zyx (ZYX) EV abundance Log2_FC (DYT1+RTV/DYT1, 20 μM): −0.3666 | Acaa1a (ACAA1) EV abundance Cohen's d (DYT + RTV/DYT, 20 μM): 1.381 | Ano6 (ANO6) EV abundance Cohen's d (DYT + RTV/DYT, 20 μM): 0.2001 | Ap1b1 (AP1B1) EV abundance Cohen's d (DYT + RTV/DYT, 20 μM): 3.258 | Arl8b (ARL8B) EV abundance Cohen's d (DYT + RTV/DYT, 20 μM): 0.9032 | Bzw2 (BZW2) EV abundance Cohen's d (DYT + RTV/DYT, 20 μM): 1.685 | Cryab (CRYAB) EV abundance Cohen's d (DYT + RTV/DYT, 20 μM): 0.7088 | DIst (DLST) EV abundance Cohen's d (DYT + RTV/DYT, 20 μM): −1.437 | Ehd4 (EHD4) EV abundance Cohen's d (DYT + RTV/DYT, 20 μM): 0.2557 | Flna (FLNA) EV abundance Cohen's d (DYT + RTV/DYT, 20 μM): 1.357 | Fscn1 (FSCN1) EV abundance Cohen's d (DYT + RTV/DYT, 20 μM): 2.995 | Gart (GART) EV abundance Cohen's d (DYT + RTV/DYT, 20 μM): 2.137 | Hist1h1b (H1-5) EV abundance Cohen's d (DYT + RTV/DYT, 20 μM): 1.182 | Hnrnpc (HNRNPC) EV abundance Cohen's d (DYT + RTV/DYT, 20 μM): −0.2031 | Ipo9 (IPO9) EV abundance Cohen's d (DYT + RTV/DYT, 20 μM): 4.135 | Jam3 (JAM3) EV abundance Cohen's d (DYT + RTV/DYT, 20 μM): −2.624 | Lipg (LIPG) EV abundance Cohen's d (DYT + RTV/DYT, 20 μM): 2.834 | Lrrc59 (LRRC59) EV abundance Cohen's d (DYT + RTV/DYT, 20 μM): 0.8879 | Mapk3 (MAPK3) EV abundance Cohen's d (DYT + RTV/DYT, 20 μM): 2.384 | Mars (MARS1) EV abundance Cohen's d (DYT + RTV/DYT, 20 μM): 2.211 | Mrc2 (MRC2) EV abundance Cohen's d (DYT + RTV/DYT, 20 μM): −0.4039 | Myh9 (MYH9) EV abundance Cohen's d (DYT + RTV/DYT, 20 μM): −0.03876 | Ndnf (NDNF) EV abundance Cohen's d (DYT + RTV/DYT, 20 μM): 0.353 | Pcmt1 (PCMT1) EV abundance Cohen's d (DYT + RTV/DYT, 20 μM): 5.975 | Pi4ka (PI4KA) EV abundance Cohen's d (DYT + RTV/DYT, 20 μM): −0.6453 | Pitpnb (PITPNB) EV abundance Cohen's d (DYT + RTV/DYT, 20 μM): 2.824 | Prpsap2 (PRPSAP2) EV abundance Cohen's d (DYT + RTV/DYT, 20 μM): −0.1421 | Psmc5 (PSMC5) EV abundance Cohen's d (DYT + RTV/DYT, 20 μM): 2.883 | Psmd12 (PSMD12) EV abundance Cohen's d (DYT + RTV/DYT, 20 μM): 10.6 | Psme4 (PSME4) EV abundance Cohen's d (DYT + RTV/DYT, 20 μM): 3.22 | Ptma (PTMA) EV abundance Cohen's d (DYT + RTV/DYT, 20 μM): −2.366 | Rap2b (RAP2B) EV abundance Cohen's d (DYT + RTV/DYT, 20 μM): 0.7129 | Rbm3 (RBM3) EV abundance Cohen's d (DYT + RTV/DYT, 20 μM): −0.4328 | Rhoa (RHOA) EV abundance Cohen's d (DYT + RTV/DYT, 20 μM): 0.3039 | Rpl10 (RPL10) EV abundance Cohen's d (DYT + RTV/DYT, 20 μM): 0.7944 | Rpl13a (RPL13A) EV abundance Cohen's d (DYT + RTV/DYT, 20 μM): 0.9222 | Rps13 (RPS13) EV abundance Cohen's d (DYT + RTV/DYT, 20 μM): 0.06202 | Sec31a (SEC31A) EV abundance Cohen's d (DYT + RTV/DYT, 20 μM): 4.402 | Slc2a1 (SLC2A1) EV abundance Cohen's d (DYT + RTV/DYT, 20 μM): −0.04516 | Stom (STOM) EV abundance Cohen's d (DYT + RTV/DYT, 20 μM): 0.4181 | Tardbp (TARDBP) EV abundance Cohen's d (DYT + RTV/DYT, 20 μM): 0.6116 | Tgfb2 (TGFB2) EV abundance Cohen's d (DYT + RTV/DYT, 20 μM): −1.388 | Tln1 (TLN1) EV abundance Cohen's d (DYT + RTV/DYT, 20 μM): 1.026 | Tln2 (TLN2) EV abundance Cohen's d (DYT + RTV/DYT, 20 μM): 1.031 | Tubb1 (TUBB1) EV abundance Cohen's d (DYT + RTV/DYT, 20 μM): −0.1131 | Usp7 (USP7) EV abundance Cohen's d (DYT + RTV/DYT, 20 μM): 7.143 | Wdr26 (WDR26) EV abundance Cohen's d (DYT + RTV/DYT, 20 μM): 3.714 | Zyx (ZYX) EV abundance Cohen's d (DYT + RTV/DYT, 20 μM): −0.7038 | Pearson r between ritonavir and salubrinal effects on putative DYT-TOR1A biomarker proteins (DYT-TOR1A MEF EVs, 20 μM each): 0.47
